Laboratory results from article PMC10905675, “INX-315, a Selective CDK2 Inhibitor, Induces Cell Cycle Arrest and Senescence in Solid Tumors” (Cancer Discovery, 2023).

Experiments:
Test in all cases: SelectScreen LanthaScreen Binding
Conditions in all cases: INX-0315 at 100nM
[1] = target: T1, TAOK3 (JIK) (Homo sapiens, UniProt Q9H2K8)
T1 construct: purchased Thermo Fisher Scientific SelectScreen (plus Nanosyn / Reaction Biology for CDK/cyclin lines)
Source text: (§1) INX-315 was first evaluated in the SelectScreen Biochemical Kinase Profiling at Thermo Fisher Scientific (Madison, WI). The primary screen consisted of INX-315 dosed at a single concentration of 100 nmol/L in 1% DMSO across each platform within the SelectScreen array of assays, LanthaScreen Eu Kinase Binding Assay; AdaptaScreen; and Z'LyteScreen using preestablished conditions at Thermo Fisher Scientific as shown in Supplementary Table S2. […] The follow-up screen consisted of 10-point dose–response curves for INX-315 from 1 µmol/L to 0.0495 nmol/L.

[2] = target: T2, CDK13/cyclin K (Homo sapiens, UniProt Q14004)
T2 construct: purchased Thermo Fisher Scientific SelectScreen (plus Nanosyn / Reaction Biology for CDK/cyclin lines)
Source text: as §1

[3] = target: T3, STK38 (NDR) (Homo sapiens, UniProt Q15208)
T3 construct: purchased Thermo Fisher Scientific SelectScreen (plus Nanosyn / Reaction Biology for CDK/cyclin lines)
Source text: as §1

[4] = target: T4, TLK1 (Homo sapiens, UniProt Q9UKI8)
T4 construct: purchased Thermo Fisher Scientific SelectScreen (plus Nanosyn / Reaction Biology for CDK/cyclin lines)
T4 sequence (Q9UKI8 whole entry): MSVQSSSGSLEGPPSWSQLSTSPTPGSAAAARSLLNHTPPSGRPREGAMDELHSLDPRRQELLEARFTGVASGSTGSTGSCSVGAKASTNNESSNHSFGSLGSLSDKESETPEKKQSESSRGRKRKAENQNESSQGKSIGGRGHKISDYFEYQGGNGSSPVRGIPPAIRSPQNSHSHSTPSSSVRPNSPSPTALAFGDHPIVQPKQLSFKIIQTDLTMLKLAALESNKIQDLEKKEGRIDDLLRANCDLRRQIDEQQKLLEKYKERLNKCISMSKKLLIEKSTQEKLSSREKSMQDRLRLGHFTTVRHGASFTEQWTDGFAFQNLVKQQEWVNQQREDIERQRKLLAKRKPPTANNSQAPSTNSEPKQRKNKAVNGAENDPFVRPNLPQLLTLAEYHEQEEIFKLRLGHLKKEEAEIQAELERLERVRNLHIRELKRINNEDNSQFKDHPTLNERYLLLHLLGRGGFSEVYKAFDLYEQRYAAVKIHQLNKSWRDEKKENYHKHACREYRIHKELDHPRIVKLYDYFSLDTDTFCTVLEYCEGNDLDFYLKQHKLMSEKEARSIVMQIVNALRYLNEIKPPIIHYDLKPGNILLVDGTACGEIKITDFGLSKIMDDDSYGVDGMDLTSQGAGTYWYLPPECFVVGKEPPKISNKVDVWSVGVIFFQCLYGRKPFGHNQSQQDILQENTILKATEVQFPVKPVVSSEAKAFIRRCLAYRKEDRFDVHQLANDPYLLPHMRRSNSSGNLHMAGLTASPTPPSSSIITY
Source text: as §1

[5] = target: T5, DMPK (Homo sapiens, UniProt Q09013)
T5 construct: purchased Thermo Fisher Scientific SelectScreen (plus Nanosyn / Reaction Biology for CDK/cyclin lines)
Source text: as §1

[6] = target: T6, CDK9/cyclin K (Homo sapiens, UniProt P50750)
T6 construct: purchased Thermo Fisher Scientific SelectScreen (plus Nanosyn / Reaction Biology for CDK/cyclin lines)
Source text: as §1

[7] = target: T7, CDK2/cyclin O (Homo sapiens, UniProt P24941)
T7 construct: purchased Thermo Fisher Scientific SelectScreen (plus Nanosyn / Reaction Biology for CDK/cyclin lines)
Source text: as §1

[8] = target: T8, KIT V654A (Homo sapiens, UniProt P10721, V654A)
T8 construct: purchased Thermo Fisher Scientific SelectScreen (plus Nanosyn / Reaction Biology for CDK/cyclin lines)
T8 sequence (P10721 26-976 V654A): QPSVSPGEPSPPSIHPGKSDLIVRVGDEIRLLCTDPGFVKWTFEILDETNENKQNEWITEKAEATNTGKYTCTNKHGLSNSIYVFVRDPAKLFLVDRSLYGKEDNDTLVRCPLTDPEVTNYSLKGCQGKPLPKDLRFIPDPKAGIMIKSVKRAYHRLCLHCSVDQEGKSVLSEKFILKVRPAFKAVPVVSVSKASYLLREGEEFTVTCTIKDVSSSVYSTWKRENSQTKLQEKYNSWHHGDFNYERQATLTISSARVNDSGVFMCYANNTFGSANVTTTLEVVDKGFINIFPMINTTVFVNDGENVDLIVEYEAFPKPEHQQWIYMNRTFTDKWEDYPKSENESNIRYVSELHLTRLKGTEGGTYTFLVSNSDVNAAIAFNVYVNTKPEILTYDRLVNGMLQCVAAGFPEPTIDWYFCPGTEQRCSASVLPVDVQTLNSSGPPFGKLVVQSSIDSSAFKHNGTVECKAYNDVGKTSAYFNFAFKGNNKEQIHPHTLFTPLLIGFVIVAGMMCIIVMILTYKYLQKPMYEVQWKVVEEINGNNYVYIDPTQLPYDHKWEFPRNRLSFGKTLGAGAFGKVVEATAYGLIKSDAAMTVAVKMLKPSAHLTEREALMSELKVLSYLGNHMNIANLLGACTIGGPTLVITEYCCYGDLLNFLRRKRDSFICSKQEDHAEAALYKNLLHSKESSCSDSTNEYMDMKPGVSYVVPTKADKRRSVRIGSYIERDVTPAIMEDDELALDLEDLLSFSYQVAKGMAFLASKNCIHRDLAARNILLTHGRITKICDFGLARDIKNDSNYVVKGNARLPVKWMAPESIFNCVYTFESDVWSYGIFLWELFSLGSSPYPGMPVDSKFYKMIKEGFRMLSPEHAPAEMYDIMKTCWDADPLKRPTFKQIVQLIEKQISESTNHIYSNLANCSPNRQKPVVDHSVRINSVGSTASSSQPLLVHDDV
Source text: as §1

[9] = target: T9, STK17B (DRAK2) (Homo sapiens, UniProt O94768)
T9 construct: purchased Thermo Fisher Scientific SelectScreen (plus Nanosyn / Reaction Biology for CDK/cyclin lines)
Source text: as §1

[10] = target: T10, MKNK2 (MNK2) (Homo sapiens, UniProt Q9HBH9)
T10 construct: purchased Thermo Fisher Scientific SelectScreen (plus Nanosyn / Reaction Biology for CDK/cyclin lines)
Source text: as §1

[11] = target: T11, MAP2K1 (MEK1) S218D S222D (Homo sapiens, UniProt Q02750, S218D/S222D)
T11 construct: purchased Thermo Fisher Scientific SelectScreen (plus Nanosyn / Reaction Biology for CDK/cyclin lines)
Source text: as §1

[12] = target: T12, MYO3B (MYO3 beta) (Homo sapiens, UniProt Q8WXR4)
T12 construct: purchased Thermo Fisher Scientific SelectScreen (plus Nanosyn / Reaction Biology for CDK/cyclin lines)
Source text: as §1

[13] = target: T13, CDK5 (Inactive) (Homo sapiens, UniProt Q00535)
T13 construct: purchased Thermo Fisher Scientific SelectScreen (plus Nanosyn / Reaction Biology for CDK/cyclin lines)
T13 sequence (Q00535 whole entry): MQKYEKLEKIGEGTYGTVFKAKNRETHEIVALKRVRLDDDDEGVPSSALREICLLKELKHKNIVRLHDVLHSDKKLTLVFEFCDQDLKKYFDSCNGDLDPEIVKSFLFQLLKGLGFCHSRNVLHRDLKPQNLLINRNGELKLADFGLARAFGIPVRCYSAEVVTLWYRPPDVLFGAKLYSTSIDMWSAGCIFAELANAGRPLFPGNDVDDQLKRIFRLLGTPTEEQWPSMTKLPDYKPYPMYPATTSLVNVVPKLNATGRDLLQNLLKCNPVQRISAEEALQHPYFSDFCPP
Source text: as §1

[14] = target: T14, WEE1 (Homo sapiens, UniProt P30291)
T14 construct: purchased Thermo Fisher Scientific SelectScreen (plus Nanosyn / Reaction Biology for CDK/cyclin lines)
Source text: as §1

[15] = target: T15, MAP2K6 (MKK6) S207E T211E (Homo sapiens, UniProt P52564, S207E/T211E)
T15 construct: purchased Thermo Fisher Scientific SelectScreen (plus Nanosyn / Reaction Biology for CDK/cyclin lines)
Source text: as §1

[16] = target: T16, MAPK9 (JNK2) (Homo sapiens, UniProt P45984)
T16 construct: purchased Thermo Fisher Scientific SelectScreen (plus Nanosyn / Reaction Biology for CDK/cyclin lines)
Source text: as §1

[17] = target: T17, LIMK1 (Homo sapiens, UniProt P53667)
T17 construct: purchased Thermo Fisher Scientific SelectScreen (plus Nanosyn / Reaction Biology for CDK/cyclin lines)
Source text: as §1

[18] = target: T18, CDK14 (PFTK1)/cyclin Y (Homo sapiens, UniProt O94921)
T18 construct: purchased Thermo Fisher Scientific SelectScreen (plus Nanosyn / Reaction Biology for CDK/cyclin lines)
Source text: as §1

[19] = target: T19, ANKK1 (Homo sapiens, UniProt Q8NFD2)
T19 construct: purchased Thermo Fisher Scientific SelectScreen (plus Nanosyn / Reaction Biology for CDK/cyclin lines)
T19 sequence (Q8NFD2 whole entry): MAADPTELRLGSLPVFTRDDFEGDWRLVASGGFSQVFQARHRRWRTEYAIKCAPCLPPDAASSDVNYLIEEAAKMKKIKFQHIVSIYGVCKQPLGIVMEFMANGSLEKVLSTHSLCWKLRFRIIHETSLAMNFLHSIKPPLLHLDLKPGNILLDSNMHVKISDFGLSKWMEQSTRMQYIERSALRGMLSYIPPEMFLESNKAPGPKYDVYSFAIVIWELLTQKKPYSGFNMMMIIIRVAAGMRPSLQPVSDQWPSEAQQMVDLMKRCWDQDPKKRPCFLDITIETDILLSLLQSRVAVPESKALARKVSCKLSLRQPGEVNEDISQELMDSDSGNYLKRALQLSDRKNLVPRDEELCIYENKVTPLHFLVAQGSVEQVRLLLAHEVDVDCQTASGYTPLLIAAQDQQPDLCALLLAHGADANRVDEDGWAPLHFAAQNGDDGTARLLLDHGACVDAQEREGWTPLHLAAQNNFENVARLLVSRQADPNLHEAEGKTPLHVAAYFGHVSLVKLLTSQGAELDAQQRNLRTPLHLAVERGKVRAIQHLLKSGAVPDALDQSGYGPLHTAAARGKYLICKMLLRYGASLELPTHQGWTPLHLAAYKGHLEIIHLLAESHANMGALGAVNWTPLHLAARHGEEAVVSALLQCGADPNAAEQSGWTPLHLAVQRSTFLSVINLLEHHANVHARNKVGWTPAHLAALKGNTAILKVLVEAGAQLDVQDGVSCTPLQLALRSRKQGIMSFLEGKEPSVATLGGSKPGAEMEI
Source text: as §1

[20] = target: T20, CDK11/cyclin C (Homo sapiens, UniProt Q9BWU1)
T20 construct: purchased Thermo Fisher Scientific SelectScreen (plus Nanosyn / Reaction Biology for CDK/cyclin lines)
Source text: as §1

[21] = target: T21, AMPK (A1/B1/G2) (Homo sapiens, UniProt Q13131)
T21 construct: purchased Thermo Fisher Scientific SelectScreen (plus Nanosyn / Reaction Biology for CDK/cyclin lines)
Source text: as §1

[22] = target: T22, GAK (Homo sapiens, UniProt O14976)
T22 construct: purchased Thermo Fisher Scientific SelectScreen (plus Nanosyn / Reaction Biology for CDK/cyclin lines)
Source text: as §1

[23] = target: T23, CASK (Homo sapiens, UniProt O14936)
T23 construct: purchased Thermo Fisher Scientific SelectScreen (plus Nanosyn / Reaction Biology for CDK/cyclin lines)
Source text: as §1

[24] = target: T24, ACVRL1 (ALK1) (Homo sapiens, UniProt P37023)
T24 construct: purchased Thermo Fisher Scientific SelectScreen (plus Nanosyn / Reaction Biology for CDK/cyclin lines)
Source text: as §1

[25] = target: T25, GRK1 (Homo sapiens, UniProt Q15835)
T25 construct: purchased Thermo Fisher Scientific SelectScreen (plus Nanosyn / Reaction Biology for CDK/cyclin lines)
T25 sequence (Q15835 whole entry): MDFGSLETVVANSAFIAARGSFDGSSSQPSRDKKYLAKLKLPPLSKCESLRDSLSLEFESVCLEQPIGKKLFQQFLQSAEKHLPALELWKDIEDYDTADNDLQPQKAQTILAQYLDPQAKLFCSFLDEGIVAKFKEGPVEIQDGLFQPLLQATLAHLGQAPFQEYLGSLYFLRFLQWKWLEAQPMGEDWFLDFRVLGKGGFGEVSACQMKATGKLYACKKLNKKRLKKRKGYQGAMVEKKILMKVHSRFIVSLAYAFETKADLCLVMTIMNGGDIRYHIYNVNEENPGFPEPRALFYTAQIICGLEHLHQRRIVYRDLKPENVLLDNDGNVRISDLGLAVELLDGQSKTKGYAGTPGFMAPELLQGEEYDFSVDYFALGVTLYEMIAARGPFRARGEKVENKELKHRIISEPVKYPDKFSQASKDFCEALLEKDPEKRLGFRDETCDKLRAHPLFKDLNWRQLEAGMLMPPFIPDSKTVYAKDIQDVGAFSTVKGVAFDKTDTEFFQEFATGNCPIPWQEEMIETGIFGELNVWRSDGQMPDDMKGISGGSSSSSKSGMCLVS
Source text: as §1

[26] = target: T26, CDK3/cyclin E1 (Homo sapiens, UniProt Q00526)
T26 construct: purchased BPS 40103
Source text: as §1

[27] = target: T27, TGFBR1 (ALK5) (Homo sapiens, UniProt P36897)
T27 construct: purchased Thermo Fisher Scientific SelectScreen (plus Nanosyn / Reaction Biology for CDK/cyclin lines)
T27 sequence (P36897 34-503): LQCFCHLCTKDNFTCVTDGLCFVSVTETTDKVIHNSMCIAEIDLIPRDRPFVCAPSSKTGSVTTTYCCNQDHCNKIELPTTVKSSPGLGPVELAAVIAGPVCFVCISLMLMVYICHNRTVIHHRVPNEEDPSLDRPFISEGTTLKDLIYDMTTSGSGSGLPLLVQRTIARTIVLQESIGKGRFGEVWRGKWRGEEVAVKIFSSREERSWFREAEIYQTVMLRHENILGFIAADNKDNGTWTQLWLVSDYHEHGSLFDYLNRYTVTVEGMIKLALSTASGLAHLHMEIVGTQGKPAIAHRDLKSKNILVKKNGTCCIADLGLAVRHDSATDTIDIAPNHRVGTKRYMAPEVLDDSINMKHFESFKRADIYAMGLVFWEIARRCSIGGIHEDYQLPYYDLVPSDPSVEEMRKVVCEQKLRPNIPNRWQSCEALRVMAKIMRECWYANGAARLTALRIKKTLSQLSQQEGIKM
Source text: as §1

[28] = target: T28, MAP2K5 (MEK5) (Homo sapiens, UniProt Q13163)
T28 construct: purchased Thermo Fisher Scientific SelectScreen (plus Nanosyn / Reaction Biology for CDK/cyclin lines)
Source text: as §1

[29] = target: T29, MYO3A (MYO3 alpha) (Homo sapiens, UniProt Q8NEV4)
T29 construct: purchased Thermo Fisher Scientific SelectScreen (plus Nanosyn / Reaction Biology for CDK/cyclin lines)
Source text: as §1

[30] = target: T30, TLK2 (Homo sapiens, UniProt Q86UE8)
T30 construct: purchased Thermo Fisher Scientific SelectScreen (plus Nanosyn / Reaction Biology for CDK/cyclin lines)
Source text: as §1

[31] = target: T31, MAP3K14 (NIK) (Homo sapiens, UniProt Q99558)
T31 construct: purchased Thermo Fisher Scientific SelectScreen (plus Nanosyn / Reaction Biology for CDK/cyclin lines)
Source text: as §1

[32] = target: T32, STK38L (NDR2) (Homo sapiens, UniProt Q9Y2H1)
T32 construct: purchased Thermo Fisher Scientific SelectScreen (plus Nanosyn / Reaction Biology for CDK/cyclin lines)
Source text: as §1

[33] = target: T33, ACVR2A (Homo sapiens, UniProt P27037)
T33 construct: purchased Thermo Fisher Scientific SelectScreen (plus Nanosyn / Reaction Biology for CDK/cyclin lines)
Source text: as §1

[34] = target: T34, STK33 (Homo sapiens, UniProt Q9BYT3)
T34 construct: purchased Thermo Fisher Scientific SelectScreen (plus Nanosyn / Reaction Biology for CDK/cyclin lines)
T34 sequence (Q9BYT3 whole entry): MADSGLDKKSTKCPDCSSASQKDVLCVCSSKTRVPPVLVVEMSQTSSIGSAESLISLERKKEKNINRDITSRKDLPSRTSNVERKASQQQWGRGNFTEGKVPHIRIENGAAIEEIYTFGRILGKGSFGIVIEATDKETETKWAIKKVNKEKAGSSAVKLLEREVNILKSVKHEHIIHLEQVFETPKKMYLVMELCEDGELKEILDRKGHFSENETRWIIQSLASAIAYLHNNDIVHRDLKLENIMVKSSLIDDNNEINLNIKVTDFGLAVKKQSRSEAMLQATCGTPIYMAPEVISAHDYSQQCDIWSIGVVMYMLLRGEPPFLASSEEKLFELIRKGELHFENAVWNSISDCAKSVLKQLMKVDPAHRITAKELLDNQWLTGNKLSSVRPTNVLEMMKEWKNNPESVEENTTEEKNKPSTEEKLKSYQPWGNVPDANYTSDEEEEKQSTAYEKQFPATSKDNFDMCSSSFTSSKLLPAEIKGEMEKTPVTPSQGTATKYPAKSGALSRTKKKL
Source text: as §1

[35] = target: T35, FYN A (Homo sapiens, UniProt P06241)
T35 construct: purchased Thermo Fisher Scientific SelectScreen (plus Nanosyn / Reaction Biology for CDK/cyclin lines)
T35 sequence (P06241 whole entry): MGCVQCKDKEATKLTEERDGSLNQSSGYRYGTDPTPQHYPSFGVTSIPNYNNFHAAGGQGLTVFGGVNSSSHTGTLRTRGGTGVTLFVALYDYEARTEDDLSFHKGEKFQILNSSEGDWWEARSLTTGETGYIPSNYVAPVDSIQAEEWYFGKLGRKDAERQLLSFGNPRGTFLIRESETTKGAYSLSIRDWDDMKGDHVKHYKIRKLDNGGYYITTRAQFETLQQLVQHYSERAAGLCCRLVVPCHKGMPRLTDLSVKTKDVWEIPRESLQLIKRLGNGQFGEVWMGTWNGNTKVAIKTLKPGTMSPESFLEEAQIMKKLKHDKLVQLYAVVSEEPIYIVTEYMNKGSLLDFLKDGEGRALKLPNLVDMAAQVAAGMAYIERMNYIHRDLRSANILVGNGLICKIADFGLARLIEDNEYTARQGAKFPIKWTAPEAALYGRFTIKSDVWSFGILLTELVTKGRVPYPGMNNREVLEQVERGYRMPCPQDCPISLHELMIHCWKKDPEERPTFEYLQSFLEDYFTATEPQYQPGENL
Source text: as §1

[36] = target: T36, LIMK2 (Homo sapiens, UniProt P53671)
T36 construct: purchased Thermo Fisher Scientific SelectScreen (plus Nanosyn / Reaction Biology for CDK/cyclin lines)
Source text: as §1

[37] = target: T37, TNIK (Homo sapiens, UniProt Q9UKE5)
T37 construct: purchased Thermo Fisher Scientific SelectScreen (plus Nanosyn / Reaction Biology for CDK/cyclin lines)
Source text: as §1

[38] = target: T38, MAP3K2 (MEKK2) (Homo sapiens, UniProt Q9Y2U5)
T38 construct: purchased Thermo Fisher Scientific SelectScreen (plus Nanosyn / Reaction Biology for CDK/cyclin lines)
Source text: as §1

For `NS(=O)(=O)c1ccc(Nc2ncc3cc4n(c3n2)C2(CCCCC2)C(=O)NN4)cc1` [INX-315], the inhibition at 0.1 µM [1] was 4%, the inhibition at 0.1 µM [2] was 39% and the inhibition at 0.1 µM [3] was 0%. The inhibition at 0.1 µM [4] was 0%, the inhibition at 0.1 µM [5] was 6% and the inhibition at 0.1 µM [6] was 38%. For the same compound, the inhibition at 0.1 µM [7] was 98%, the inhibition at 0.1 µM [8] was 26% and the inhibition at 0.1 µM [9] was 4%. For the same compound, the inhibition at 0.1 µM [10] was 2%, the inhibition at 0.1 µM [11] was 1% and the inhibition at 0.1 µM [12] was 0%. For the same compound, the inhibition at 0.1 µM [13] was 80%, the inhibition at 0.1 µM [14] was 4% and the inhibition at 0.1 µM [15] was 7%. The inhibition at 0.1 µM [16] was 4%, the inhibition at 0.1 µM [17] was 34% and the inhibition at 0.1 µM [18] was 24%. For the same compound, the inhibition at 0.1 µM [19] was 2%, the inhibition at 0.1 µM [20] was 1% and the inhibition at 0.1 µM [21] was 15%. For the same compound, the inhibition at 0.1 µM [22] was 38%, the inhibition at 0.1 µM [23] was -3% and the inhibition at 0.1 µM [24] was 2%. For the same compound, the inhibition at 0.1 µM [25] was 27%, the inhibition at 0.1 µM [26] was 88% and the inhibition at 0.1 µM [27] was 4%. For the same compound, the inhibition at 0.1 µM [28] was 27%, the inhibition at 0.1 µM [29] was 6% and the inhibition at 0.1 µM [30] was 13%. For the same compound, the inhibition at 0.1 µM [31] was -2%, the inhibition at 0.1 µM [32] was 0% and the inhibition at 0.1 µM [33] was 3%. It also gave an inhibition at 0.1 µM [34] of 5%, an inhibition at 0.1 µM [35] of 7% and an inhibition at 0.1 µM [36] of 22%. For the same compound, the inhibition at 0.1 µM [37] was 12% and the inhibition at 0.1 µM [38] was 12%.
